Results on 28 compounds are retold here after patent publication US11090364B2, “Conjugates of a pharmaceutical agent and a moiety capable of binding to a glucose sensing protein” (SANOFI, priority 2016, dated 2021).

SMILES strings stand for the structures.

This experiment relates to HepG2 cells. The experiment can be described thus: HepG2 assay: 14C 2-deoxy-D-glucose transport into HepG2 cells. The class given is cell-based. As to conditions: Homo sapiens, test compound 100 μM. As for the experimental part: For measurement of ^14C 2-deoxy-D-glucose transport into HepG2 cells, cells were seeded in collagen treated 96-well plates (Cytostar-T Plates Perkin Elmer, 40.000 cells/200 μ/well) in medium complete (MEM W/GLUT-I, EARLES (Gibco #41090) /NEAA/PS/10% FCS) and grown for 48 hours. After starvation for 2 hours with MEM W/GLUT-I, EARLES (Gibco #41090)/NEAA/no serum 100 μl/well and washing twice with 200 μL KRB buffer, cells were stimulated in a dose dependent manner by adding 20 μL of test compound dilution 0-750 μM (7.5 times higher concentration than final) or 20 μL of 188 μM Cytochalasin B solution as negative control, to 80 μL KRB buffer and incubated for 30 minutes. After compound stimulation, the transport of ^14C 2-deoxy-D-glucose was started by adding of 50 μL ^14C 2-deoxy-D-glucose solution (250 μM 2-deoxy-D-glucose cold and 15 μM ^14C 2-deoxy-D-glucose 0.13 μCi/well) for 20 minutes. Transport was stopped by adding 50 μL/well 40 μM Cytochalasin B solution. Plates were measured in a 96-well Wallac Microbeta device. The cpm (counts per minute) values were used to determine the % inhibition values for the test compounds within each experiment, which then are averaged over the number of experiments performed.

Broadly, the inhibition is how much of the control response was suppressed. A high value points to a strong effect. In the case of `CCN1CCN(C(=O)[C@H]2OC(O)[C@H](O)[C@@H](O)[C@@H]2O)CC1` (stereo partly drawn) [Example 22, (4-Ethylpiperazin-1-yl)-[(2S,3S,4S,5R)-3,4,5,6-tetrahydroxytetrahydropyran-2-yl]methanone], the inhibition at 100 µM was 11.4%.

`O=[N+]([O-])c1ccc(NCCCCCCc2cn([C@@H]3O[C@H](CO)[C@@H](O)[C@H](O)[C@H]3O)nn2)c2nonc12` [Example 92, (2R,3S,4S,5R,6R)-2-(Hydroxymethyl)-6-[4-[6-[(4-nitro-2,1,3-benzoxadiazol-7-yl)amino]hexyl]triazol-1-yl]tetrahydropyran-3,4,5-triol] returned an inhibition at 100 µM of 23.1%.

`CCCCCc1cn([C@H]2C(O)O[C@H](CO)[C@@H](O)[C@@H]2O)nn1` (stereo partly drawn) [Example 65, (3R,4R,5S,6R)-6-(Hydroxymethyl)-3-(4-pentyltriazol-1-yl)tetrahydropyran-2,4,5-triol] gave an inhibition at 100 µM of 7.79%.

`CC(=O)O[C@@H]1O[C@H](C(=O)N2CCN(C(C)C)CC2)[C@@H](OC(C)=O)[C@H](OC(C)=O)[C@H]1OC(C)=O` [Example 6, [(2S,3R,4S,5S,6S)-2,3,5-Triacetoxy-6-(4-isopropylpiperazine-1-carbonyl)tetrahydropyran-4-yl] acetate] had an inhibition at 100 µM of 7.75%.

`CC(=O)O[C@@H]1O[C@H](C(=O)N2CCN(C3CCCCC3)CC2)[C@@H](OC(C)=O)[C@H](OC(C)=O)[C@H]1OC(C)=O` [Example 9, [(2S,3R,4S,5S,6S)-2,3,5-Triacetoxy-6-(4-cyclohexylpiperazine-1-carbonyl)tetrahydropyran-4-yl] acetate] registered an inhibition at 100 µM of 5.11%.

Compound `CC(=O)O[C@@H]1OC(CN2CCN(c3ccc(Br)cc3)CC2)=C[C@H](OC(C)=O)[C@H]1OC(C)=O` [Example 53, [(2S,3R,4S)-2,3-Diacetoxy-6-[[4-(4-bromophenyl)piperazin-1-yl]methyl]-3,4-dihydro-2H-pyran-4-yl] acetate] showed an inhibition at 100 µM of 23.9%.

With `CC(=O)O[C@@H]1OC(CN2CCN(c3ccccc3Cl)CC2)=C[C@H](OC(C)=O)[C@H]1OC(C)=O` [Example 49, [(2S,3R,4S)-2,3-Diacetoxy-6-[[4-(2-chlorophenyl)piperazin-1-yl]methyl]-3,4-dihydro-2H-pyran-4-yl] acetate], the inhibition at 100 µM turned out to be 19.9%.

As for `COC(=O)c1ccc(-c2cn([C@H]3C(O)O[C@H](CO)[C@@H](O)[C@@H]3O)nn2)cc1` (stereo partly drawn) [Example 58, Methyl 4-[1-[(3R,4R,5S,6R)-2,4,5-trihydroxy-6-(hydroxymethyl)tetrahydropyran-3-yl]triazol-4-yl]benzoate], testing at 100 µM gave an inhibition of 20%.

`CC(=O)O[C@@H]1O[C@H](C(=O)N2CCN(c3ccccc3)CC2)[C@@H](OC(C)=O)[C@H](OC(C)=O)[C@H]1OC(C)=O` [Example 12, [(2S,3R,4S,5S,6S)-2,3,5-Triacetoxy-6-(4-phenylpiperazine-1-carbonyl)tetrahydropyran-4-yl] acetate] showed an inhibition at 100 µM of 5.43%.

`CN(Cc1ccccc1)Cc1cn([C@H]2C(O)O[C@H](CO)[C@@H](O)[C@@H]2O)nn1` (stereo partly drawn) [Example 59, (3R,4R,5S,6R)-3-[4-[[Benzyl(methyl)amino]methyl]triazol-1-yl]-6-(hydroxymethyl)tetrahydropyran-2,4,5-triol] showed an inhibition at 100 µM of 7.56%.

Turning to `C=CCN1CCN(C(=O)[C@H]2O[C@@H](OC(C)=O)[C@H](OC(C)=O)[C@@H](OC(C)=O)[C@@H]2OC(C)=O)CC1` [Example 8, [(2S,3R,4S,5S,6S)-2,3,5-Triacetoxy-6-(4-allylpiperazine-1-carbonyl)tetrahydropyran-4-yl] acetate], the inhibition at 100 µM was determined as 7.67%.

`COc1ccc2cc(-c3cn([C@H]4C(O)O[C@H](CO)[C@@H](O)[C@@H]4O)nn3)ccc2c1` (stereo partly drawn) [Example 60, (3R,4R,5S,6R)-6-(Hydroxymethyl)-3-[4-(6-methoxy-2-naphthyl)triazol-1-yl]tetrahydropyran-2,4,5-triol] had an inhibition at 100 µM of 14.8%.

The compound `CC(=O)O[C@@H]1OC(CN2CCN(Cc3ccc4c(c3)OCO4)CC2)=C[C@H](OC(C)=O)[C@H]1OC(C)=O` [Example 47, [(2S,3R,4S)-2,3-Diacetoxy-6-[[4-(1,3-benzodioxol-5-ylmethyl)piperazin-1-yl]methyl]-3,4-dihydro-2H-pyran-4-yl] acetate] showed an inhibition at 100 µM of 13.8%.

Compound `CC(=O)O[C@@H]1O[C@H](C(=O)N2CCN(C(C)(C)C)CC2)[C@@H](OC(C)=O)[C@H](OC(C)=O)[C@H]1OC(C)=O` [Example 7, [(2S,3R,4S,5S,6S)-2,3,5-Triacetoxy-6-(4-tert-butylpiperazine-1-carbonyl)tetrahydropyran-4-yl] acetate] gave an inhibition at 100 µM of 6.99%.

For `OC[C@H]1OC(O)[C@H](n2cc(CC3CCCCC3)nn2)[C@@H](O)[C@@H]1O` (stereo partly drawn) [Example 64, (3R,4R,5S,6R)-3-[4-(Cyclohexylmethyl)triazol-1-yl]-6-(hydroxymethyl)tetrahydropyran-2,4,5-triol], the inhibition at 100 µM amounted to 8.86%.

Compound `COc1cccc(N2CCN(CC3=C[C@H](OC(C)=O)[C@@H](OC(C)=O)[C@H](OC(C)=O)O3)CC2)c1` [Example 51, [(2S,3R,4S)-2,3-Diacetoxy-6-[[4-(3-methoxyphenyl)piperazin-1-yl]methyl]-3,4-dihydro-2H-pyran-4-yl] acetate] displayed an inhibition at 100 µM of 17.9%.

As for `O=[N+]([O-])c1ccc(CCCCCCCc2cn([C@H]3C(O)O[C@H](CO)[C@@H](O)[C@@H]3O)nn2)c2nonc12` (stereo partly drawn) [Example 67, (3R,4R,5S,6R)-6-(Hydroxymethyl)-3-[4-[7-(4-nitro-2,1,3-benzoxadiazol-7-yl)heptyl]triazol-1-yl]tetrahydropyran-2,4,5-triol], the inhibition at 100 µM came to 25.8%.

For the compound `O=[N+]([O-])c1ccc(NCc2cn(C[C@H]3OC(O)[C@H](O)[C@@H](O)[C@@H]3O)nn2)c2nonc12` (stereo partly drawn) [Example 75, (3R,4S,5S,6R)-6-[[4-[[(4-Nitro-2,1,3-benzoxadiazol-7-yl)amino]methyl]triazol-1-yl]methyl]tetrahydropyran-2,3,4,5-tetrol], testing at 100 µM gave an inhibition of 31.2%.

For the compound `CN1CCN(C(=O)[C@H]2OC(O)[C@H](O)[C@@H](O)[C@@H]2O)CC1` (stereo partly drawn) [Example 21, (4-Methylpiperazin-1-yl)-[(2S,3S,4S,5R)-3,4,5,6-tetrahydroxytetrahydropyran-2-yl]methanone], at 100 µM the inhibition was 7.53%.

Take `CC(=O)O[C@@H]1O[C@H](C(=O)N2CCN(C)CC2)[C@@H](OC(C)=O)[C@H](OC(C)=O)[C@H]1OC(C)=O` [Example 1, [(2S,3R,4S,5S,6S)-2,3,5-Triacetoxy-6-(4-methylpiperazine-1-carbonyl)tetrahydropyran-4-yl] acetate]: at 100 µM the inhibition was 6.32%.

On to `CC(=O)O[C@@H]1OC(CN2CCN(c3ccc(Cl)cc3)CC2)=C[C@H](OC(C)=O)[C@H]1OC(C)=O` [Example 48, [(2S,3R,4S)-2,3-Diacetoxy-6-[[4-(4-chlorophenyl)piperazin-1-yl]methyl]-3,4-dihydro-2H-pyran-4-yl] acetate], for which the inhibition at 100 µM was found to be 28.8%.

Turning to `CC(C)(C)N1CCN(C(=O)[C@H]2OC(O)[C@H](O)[C@@H](O)[C@@H]2O)CC1` (stereo partly drawn) [Example 27, (4-tert-Butylpiperazin-1-yl)-[(2S,3S,4S,5R)-3,4,5,6-tetrahydroxytetrahydropyran-2-yl]methanone], the inhibition at 100 µM came out at 13.1%.

Take `COc1ccccc1N1CCN(C(=O)[C@H]2OC(O)[C@H](O)[C@@H](O)[C@@H]2O)CC1` (stereo partly drawn) [Example 39, [4-(2-Methoxyphenyl)piperazin-1-yl]-[(2S,3S,4S,5R)-3,4,5,6-tetrahydroxytetrahydropyran-2-yl]methanone]: the inhibition at 100 µM was determined as 11%.

`CC(=O)O[C@@H]1OC(CN2CCN(C/C=C/c3ccccc3)CC2)=C[C@H](OC(C)=O)[C@H]1OC(C)=O` [Example 46, [(2S,3R,4S)-2,3-Diacetoxy-6-[[4-[(E)-cinnamyl]piperazin-1-yl]methyl]-3,4-dihydro-2H-pyran-4-yl] acetate] registered an inhibition at 100 µM of 8.76%.

`CC(=O)O[C@@H]1O[C@H](C(=O)N2CCN(c3ccc(Cl)cc3)CC2)[C@@H](OC(C)=O)[C@H](OC(C)=O)[C@H]1OC(C)=O` [Example 14, [(2S,3R,4S,5S,6S)-2,3,5-Triacetoxy-6-[4-(4-chlorophenyl)piperazine-1-carbonyl]tetrahydropyran-4-yl] acetate] registered an inhibition at 100 µM of 5.67%.

In turn, `COc1ccc(N2CCN(CC3=C[C@H](OC(C)=O)[C@@H](OC(C)=O)[C@H](OC(C)=O)O3)CC2)cc1` [Example 50, [(2S,3R,4S)-2,3-Diacetoxy-6-[[4-(4-methoxyphenyl)piperazin-1-yl]methyl]-3,4-dihydro-2H-pyran-4-yl] acetate] displayed an inhibition at 100 µM of 13.8%.

In the case of `O=[N+]([O-])c1ccc(NCc2cn([C@@H]3O[C@H](CO)[C@@H](O)[C@H](O)[C@H]3O)nn2)c2nonc12` [Example 88, (2R,3S,4S,5R,6R)-2-(Hydroxymethyl)-6-[4-[[(4-nitro-2,1,3-benzoxadiazol-7-yl)amino]methyl]triazol-1-yl]tetrahydropyran-3,4,5-triol], testing at 100 µM gave an inhibition of 31.4%.

The compound `O=C([C@H]1OC(O)[C@H](O)[C@@H](O)[C@@H]1O)N1CCN(c2ccc(Cl)cc2)CC1` (stereo partly drawn) [Example 34, [4-(4-Chlorophenyl)piperazin-1-yl]-[(2S,3S,4S,5R)-3,4,5,6-tetrahydroxytetrahydropyran-2-yl]methanone] returned an inhibition at 100 µM of 20.5%.
